Experimental data: the supplement of paper PMC10307832

Legend:
Experiment in all cases: relative viability (nuclei count vs DMSO), 5 days (fraction); higher = more cells survive
[1] = compound: COc1cc2nc(N3CCCN(C)CC3)nc(NC3CCN(Cc4ccccc4)CC3)c2cc1OC + NC(=O)Nc1cc(-c2cccc(F)c2)sc1C(=O)N[C@H]1CCCNC1 [AZD7762] (partner 0.2 µM)
Outline: (§1)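 For relative viability, nuclei counts in treated wells were divided by those in vehicle wells. Lung cancer cell lines had been pin-tool dosed in 1536-well plates the day after seeding and cultured for 5 days, then fixed and stained in one step (final 0.05% Triton X-100, 1% formaldehyde, 1 ug/ml Hoechst) and imaged at 4×. Doses were one drug alone or a fixed anchor-drug dose plus five library-drug doses (not always all listed) in √10 steps, and values are duplicate-plate medians.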

[2] = compound: COc1cc2nc(N3CCCN(C)CC3)nc(NC3CCN(Cc4ccccc4)CC3)c2cc1OC + O=C(CCCCCCC(=O)Nc1ccccc1)NO [Vorinostat] (partner 1 µM)
Outline: as §1

AZD6482 + Foretinib = compound: Cc1cc([C@@H](C)Nc2ccccc2C(=O)O)c2nc(N3CCOCC3)cc(=O)n2c1 [AZD6482] + COc1cc2c(Oc3ccc(NC(=O)C4(C(=O)Nc5ccc(F)cc5)CC4)cc3F)ccnc2cc1OCCCN1CCOCC1 [Foretinib] (partner 0.25 µM)
Outline: as §1

AZD6482 + Crizotinib = compound: Cc1cc([C@@H](C)Nc2ccccc2C(=O)O)c2nc(N3CCOCC3)cc(=O)n2c1 [AZD6482] + C[C@@H](Oc1cc(-c2cnn(C3CCNCC3)c2)cnc1N)c1c(Cl)ccc(F)c1Cl [Crizotinib] (partner 1 µM)
Outline: as §1

Cell Line	relative viability ([1]; first compound 0.2 µM)	relative viability ([1]; first compound 0.6325 µM)	relative viability ([1]; first compound 2 µM)	relative viability ([1]; first compound 6.325 µM)	relative viability ([2]; first compound 0.2 µM)	relative viability ([2]; first compound 0.6325 µM)	relative viability ([2]; first compound 2 µM)	relative viability ([2]; first compound 6.325 µM)	relative viability (AZD6482 + Foretinib; first compound 0.08 µM)	relative viability (AZD6482 + Foretinib; first compound 0.253 µM)	relative viability (AZD6482 + Foretinib; first compound 0.8 µM)	relative viability (AZD6482 + Foretinib; first compound 8 µM)	relative viability (AZD6482 + Crizotinib; first compound 0.08 µM)	relative viability (AZD6482 + Crizotinib; first compound 0.253 µM)	relative viability (AZD6482 + Crizotinib; first compound 0.8 µM)	relative viability (AZD6482 + Crizotinib; first compound 2.53 µM)	relative viability (AZD6482 + Crizotinib; first compound 8 µM)	relative viability (AZD6482 + Foretinib; first compound 2.53 µM)
NCI-H2087	1.48	1.18	1.46	1.22	0.806	0.618	0.521	0.611	1.07	0.972	1.12	1.08	0.805	0.93	0.997	0.827	0.984	–
NCI-H2126	1.04	1.02	1.04	0.982	0.8	0.802	0.688	0.69	1.08	0.954	1.12	0.724	0.954	0.987	1.01	0.787	0.777	0.757
NCI-H2170	0.936	0.809	0.892	0.833	0.858	0.765	0.86	0.755	0.977	1	0.955	0.785	1.11	1.15	1.23	1.05	0.851	0.922
NCI-H2347	0.697	0.714	0.839	0.76	0.712	0.725	0.51	0.504	0.646	0.569	0.946	0.74	–	0.609	0.581	0.425	0.498	0.557
NCI-H2405	0.671	0.792	0.829	0.973	1.01	0.989	1.02	0.976	0.642	–	0.968	0.57	0.577	0.772	0.893	0.587	0.546	0.608
NCI-H3122	1.1	0.918	1.02	0.983	1.04	1.04	0.921	0.937	0.937	0.846	1.09	0.926	0.243	0.285	0.27	0.212	0.25	0.946
PC-3 [JPC-3]	0.692	1.06	0.874	0.685	0.625	0.926	0.781	0.707	0.928	1.09	1.09	0.875	0.926	0.988	0.952	0.862	1.02	0.877
PC-14	0.343	0.382	0.357	0.257	0.674	0.674	0.625	0.0432	0.906	0.9	0.945	0.953	0.826	0.896	0.904	0.783	0.876	0.83
RERF-LC-KJ	1.03	0.932	0.999	0.888	0.61	0.704	0.703	0.589	0.791	0.825	0.822	0.7	0.745	0.776	0.832	0.818	0.676	0.781
